From US8008458B2, “Fatty acid phenolic conjugates” (Indiana University Health Inc., priority 2002, dated 2011)

Experiments:
Type in all cases: cell-based
Jurkat cells = assay: Jurkat leukemic cell apoptosis (YO-PRO-1 labeling, flow cytometry)
Procedure: The DHA-RVT ester prepared according to Example 1 was dissolved in DMSO. This solution was used to treat Jurkat cells labeled with YO-PRO-1 (sold by Molecular Probes of Oregon), which is a green fluorescent dye used in flagging apoptotic cells. The labeled cells were analyzed using a FACStar-plus flow cytometer equipped with a water-cooled argon laser emitting at a frequency of 488 nm. Detection of the fluorescent probe was ascertained using a 530±30 band-pass filter. The data depicted in FIGS. 10a-c are illustrated in the form of a histogram. The fluorescent intensity is indicative of apoptotic expression. The unfilled histogram represents the labeled, non-treated cells (1); the filled histogram represents the treated cells (2). […] At approximately 1 μM concentration, the DHA-RVT ester induced apoptosis in approximately 50% of the Jurkat cells (FIG. 10b) while at a concentration of 0.1 μM the ester had little effect on the Jurkat cells (FIG. 10c). Concentrations of resveratrol (10 μM) plus DHA (10 μM) have no effect on Jurkat cell growth.

[1] = test system: MDA-231-MB breast cancer cells; assay: Induction of apoptosis, activated caspase 3 (FITC-DEVD-FMK fluorescence microscopy); conditions: 25 μM or similar concentrations, 4 hours at 37° C. (FIG. 11)
Procedure: DHA and EPA conjugates of propofol are used to test their activities against MDA-231-MB breast cancer cells. Induction of apoptosis was assayed by incubating cells with DHA, EPA, or propofol alone or DHA, EPA with propofol as well as DHA-, and EPA as propofol conjugates for 4 hours at 37° C.

[2] = test system: breast carcinoma MDA-MB-231 cells; assay: Cell adhesion assay, adherence to human vitronectin; conditions: 45 min at 37° C., compared with vehicle treated control (FIG. 13)
Procedure: The cell adhesion assay was performed according to the procedure described in Deryugina, E. I., Ratnikov, B., Postnova, T. I., Rozanov, D. V., Strongin, A. Y. (2002) J. Biol. Chem. 277, 9749-9756. The cell adhesion assay was preformed using cyctomatrix of human vitronectin in a 96-well plate (Chemicon International Incorp. of Temecula, Calif.). Each well was incubated with 100 μL of breast carcinoma MDA-MB-231 cells (1×10^5 cells/ml) at 37° C. for 45 min in a CO2 incubator. Individual wells were treated with one of the following: (a) individual agents: DHA, EPA, and propofol; or (b) the combined agents: DHA and propofol, and EPA and propofol; or (c) the conjugates DHA-propofol, or EPA propofol (prepared as described above in Examples 2 and 3). After incubation, the wells were washed three times with PBS, and the adhered cells were stained with crystal violet in 10% ethanol for 5 min at room temperature. The excess stain was subsequently removed by washing the wells six times with PBS. The stained cells were dissolved in 100 microliters (μL) of solubilizing buffer (1:1 mixture of 0.1M NaH2PO4 at a pH of 4.5 in 50% ethanol) and the absorbance of each of the resulting samples was read at 540 nm. The absorbance of dye in the control (vehicle treated cells) was regarded as 100%, and the percent adherence of treated cells was calculated in comparison to that control.

Jurkat leukemic cells = assay: Jurkat leukemic cell growth and viability (WST-1 Cell Proliferation Kit); conditions: RVT alone, 10 μM, 24 hours, RPMI media containing 2% serum
Procedure: In order to evaluate the anti-proliferative activity and synergism between DHA and RVT, the two compounds were added separately to cell cultures containing Jurkat leukemic cells. In a separate experiment, a mixture of DHA and RVT components were added to the Jurkat leukemic cell cultures. The results are illustrated in FIG. 8 as a bar graph. Jurkat cells (Jurkat clone E6-1 from American Type Culture Collection of Manassas, Va. (5×10^4/well)) were incubated with either DHA or RVT, or a combination as indicated in a 96-well plate for 24 hours at 37° C. using a 5% CO2 in RPMI media containing 2% serum. Cell growth and viability were determined using a WST-1 Cell Proliferation Kit (sold by Roche Molecular Biochemicals of Indianapolis, Ind.). The control was a “ethanol-treated” control group. For the results illustrated in FIG. 8, the average was taken of three separate experiments. For the combination of DHA and RVT, a student t test provided a P<0.001 relative to the “ethanol-treated” control group. […] However, when the two components were combined into a single formulation, a synergistic inhibition of Jurkat cell growth was observed. The combination of DHA (30 μM) and RVT (10 μM) inhibited cell growth by about 60%. This is indicative of a synergistic interaction between DHA and RVT on cancer cell growth. […]

| Compound | induction of apoptosis [1] | inhibition of adherence of cancerous cells to vitronectin [2] | other results |
| --- | --- | --- | --- |
| resveratrol ester of docosahexaenoic acid [DHA-RVT ester] |  |  | effect on Jurkat cells (apoptosis) (Jurkat cells; 0.1 μM (FIG. 10c)): little effect; apoptosis of Jurkat cells (Jurkat cells; 10 μM (FIG. 10a)): apoptosis in nearly all; Jurkat cells in which apoptosis was induced (Jurkat cells; approximately 1 μM (FIG. 10b)): approximately 50% |
| CC/C=C\C/C=C\C/C=C\C/C=C\C/C=C\CCCC(=O)O [EPA, eicosopentenoic acid, reference compound] | not very effective | not displayed |  |
| CCC=CCC=CCC=CCC=CCC=CCC=CCCC(=O)Oc1c(C(C)C)cccc1C(C)C [DHA-propofol, 2,6 Diisopropylphenyldocosa-Hexaenoate] | effectively induced apoptosis | inhibition of adherence |  |
| CC(C)c1cccc(C(C)C)c1O [propofol, 2,6-diisopropylphenol, reference compound] | not very effective | not displayed |  |
| Oc1ccc(C=Cc2cc(O)cc(O)c2)cc1 [RVT, resveratrol] |  |  | effect on Jurkat cell growth (Jurkat leukemic cells): neither the DHA (up to 30 μM) nor the RVT (10 μM) alone had any significant effect |
| CCC=CCC=CCC=CCC=CCC=CCCCC(=O)Oc1c(C(C)C)cccc1C(C)C [EPA-propofol, 2,6-Diisopropylphenyl Eicosopentenoate] | effectively induced apoptosis | inhibition of adherence |  |
